Consider two compounds from ChEMBL document CHEMBL4359841, “Late-Stage Functionalization of Platensimycin Leading to Multiple Analogues with Improved Antibacterial Activity in Vitro and in Vivo” (2019).

The test system of assay [1] is Staphylococcus aureus. Kind of assay: Inhibition of FabB/FabF in methicillin-resistant Staphylococcus aureus assessed as antibacterial activity at 5 ug/disk after 18 hrs by agar disk diffusion method.
The subject of assay [2] is Staphylococcus aureus. Kind of assay: Inhibition of FabB/FabF in methicillin-resistant Staphylococcus aureus 3100 clinical isolate assessed as antibacterial activity after 16 hrs by agar dilution method. For orientation: In agar dilution the substance is mixed into plates at graded concentrations.
For assay [3], the system named is Staphylococcus aureus. Nature of the assay: Inhibition of FabB/FabF in methicillin-resistant Staphylococcus aureus assessed as antibacterial activity at 2 ug/disk after 18 hrs by agar disk diffusion method.
For assay [4], the system named is Staphylococcus aureus. Kind of assay: Antibacterial activity against methicillin-resistant Staphylococcus aureus infected in BALB/c mouse model of skin wound assessed as reduction in appearance of secondary scald at 2 mg administered topically as ointment twice daily for 7 days and measured after 24 hrs by visual inspection method. Type of assay: functional, organism-based.

Assay [5] has as its system Staphylococcus aureus. Kind of assay: Antibacterial activity against methicillin-resistant Staphylococcus aureus infected in C57BL/6J mouse model of peritonitis assessed as mouse survival at 30 to 50 mg/kg, po administered via gavage measured after 2 days. Type of assay: functional, organism-based.
Assay [6] concerns Staphylococcus aureus. Nature of the assay: Antibacterial activity against methicillin-resistant Staphylococcus aureus infected in BALB/c mouse model of skin wound assessed as retainment of fat layers at 2 mg administered topically as ointment twice daily for 7 days and measured after 24 hrs by HE staining analysis. The format is functional, organism-based.
The subject of assay [7] is Staphylococcus aureus. Nature of the assay: Antibacterial activity against methicillin-resistant Staphylococcus aureus infected in C57BL/6J mouse model of peritonitis assessed as mouse survival at 20 mg/kg, ip dosed at 1 hr and 5 hrs post infection and measured for 7 days relative to control. Type of assay: functional.
The test system of assay [8] is Staphylococcus aureus. Kind of assay: Inhibition of FabB/FabF in methicillin-resistant Staphylococcus aureus 3181 clinical isolate assessed as antibacterial activity after 16 hrs by agar dilution method.
Assay [9] concerns Staphylococcus aureus. Kind of assay: Inhibition of FabB/FabF in methicillin-resistant Staphylococcus aureus 3150 clinical isolate assessed as antibacterial activity after 16 hrs by agar dilution method.
Assay [10] concerns Staphylococcus aureus. Kind of assay: Inhibition of FabB/FabF in methicillin-resistant Staphylococcus aureus 2980 clinical isolate assessed as antibacterial activity after 16 hrs by agar dilution method.
In assay [11] the test system is Staphylococcus aureus. Nature of the assay: Antibacterial activity against methicillin-resistant Staphylococcus aureus infected in BALB/c mouse model of skin wound assessed as retainment of dermis layers at 2 mg administered topically as ointment twice daily for 7 days and measured and after 24 hrs by HE staining analysis. Type of assay: functional, organism-based.

Assay [12] has as its system Staphylococcus aureus. Nature of the assay: Inhibition of FabB/FabF in methicillin-resistant Staphylococcus aureus 3079 clinical isolate assessed as antibacterial activity after 16 hrs by agar dilution method.
The subject of assay [13] is Staphylococcus aureus. Nature of the assay: Antibacterial activity against methicillin-resistant Staphylococcus aureus infected in C57BL/6J mouse model of peritonitis assessed as mouse survival at 30 mg/kg, ip dosed at 1 hr and 5 hrs post infection and measured for 7 days relative to control. The format is functional.
Assay [14] has as its system Staphylococcus aureus. Kind of assay: Inhibition of FabB/FabF in methicillin-resistant Staphylococcus aureus 3056 clinical isolate assessed as antibacterial activity after 16 hrs by agar dilution method.
The subject of assay [15] is Staphylococcus aureus. Nature of the assay: Antibacterial activity against methicillin-resistant Staphylococcus aureus infected in BALB/c mouse model of skin wound assessed as reduction in detachment of epidermis from dermis at 2 mg administered topically as ointment twice daily for 7 days and measured after 24 hrs by visual inspection method. Type of assay: functional, organism-based.

The test system of assay [16] is Staphylococcus aureus. Nature of the assay: Inhibition of FabB/FabF in methicillin-resistant Staphylococcus aureus 2953 clinical isolate assessed as antibacterial activity after 16 hrs by agar dilution method.
The test system of assay [17] is Staphylococcus aureus. Kind of assay: Antibacterial activity against methicillin-resistant Staphylococcus aureus infected in BALB/c mouse model of skin infection assessed as bacterial load in skin lesions at 2 mg administered topically as ointment twice daily for 7 days and measured at 24 hrs post last dose (7.9 +/- 0.9 x 10^8 CFU/g). The format is functional.
Assay [18] concerns Staphylococcus aureus. Kind of assay: Inhibition of FabB/FabF in methicillin-resistant Staphylococcus aureus 3090 clinical isolate assessed as antibacterial activity after 16 hrs by agar dilution method.
The test system of assay [19] is Staphylococcus aureus. Nature of the assay: Inhibition of FabB/FabF in methicillin-resistant Staphylococcus aureus 3108 clinical isolate assessed as antibacterial activity after 16 hrs by agar dilution method.
Assay [20] has as its system Staphylococcus aureus. Kind of assay: Inhibition of FabB/FabF in methicillin-resistant Staphylococcus aureus 3112 clinical isolate assessed as antibacterial activity after 16 hrs by agar dilution method.
For assay [21], the system named is Staphylococcus aureus. Nature of the assay: Inhibition of FabB/FabF in methicillin-resistant Staphylococcus aureus 3156 clinical isolate assessed as antibacterial activity after 16 hrs by agar dilution method.
In assay [22] the test system is Staphylococcus aureus. Nature of the assay: Inhibition of FabB/FabF in methicillin-sensitive Staphylococcus aureus 2954 clinical isolate assessed as antibacterial activity after 16 hrs by agar dilution method.

Converted amounts (≈) assume the structure as drawn. The source made the active and inactive calls. Unless noted, the rule behind the calls is not given here.

As for `C[C@]12C[C@@]34C=C(SC5CCCCC5)C(=O)[C@@](C)(CCC(=O)Nc5c(O)ccc(C(=O)O)c5O)[C@@H]3[C@H](C[C@@H]1C4)O2`, the “antibacterial activity (disk diffusion, qualitative)” value with Staphylococcus aureus [1] was “Active”. Besides, the inhibition result in the assay with Staphylococcus aureus [2], in the assay on Staphylococcus aureus [3], in the assay with Staphylococcus aureus [8], with Staphylococcus aureus [9], in the assay on Staphylococcus aureus [10] and in the assay on Staphylococcus aureus [12] was “Active” throughout. Besides, the inhibition result in the assay on Staphylococcus aureus [14], in the assay on Staphylococcus aureus [16], with Staphylococcus aureus [18], in the assay with Staphylococcus aureus [19], in the assay on Staphylococcus aureus [20] and with Staphylococcus aureus [21] was “Active” each time. Also, the inhibition entry in the assay with Staphylococcus aureus [22] is “Active”. The result in the assay on Staphylococcus aureus [4], in the assay on Staphylococcus aureus [6], in the assay with Staphylococcus aureus [11] and with Staphylococcus aureus [15] was Active. Besides, in the assay on Staphylococcus aureus [5], the Survival entry is “inactive”. The survival at 20 mg/kg with Staphylococcus aureus [7] was 100%. The survival at 30 mg/kg in the assay with Staphylococcus aureus [13] amounted to 80%. The Activity in the assay on Staphylococcus aureus [17] came to 2.7 ×10⁶ CFU/g.

Consider `C[C@]12C[C@@]34C=CC(=O)[C@@](C)(CCC(=O)Nc5c(O)ccc(C(=O)O)c5O)[C@@H]3[C@H](C[C@@H]1C4)O2`, for which the “antibacterial activity (disk diffusion, qualitative)” value in the assay with Staphylococcus aureus [1] is “Active”. For the same compound, the MIC with Staphylococcus aureus [2], in the assay with Staphylococcus aureus [8], in the assay with Staphylococcus aureus [9], in the assay on Staphylococcus aureus [10], in the assay on Staphylococcus aureus [12] and in the assay on Staphylococcus aureus [14] was 1 µg/mL (≈ 2.27 µM) in each case. Further, the MIC in the assay on Staphylococcus aureus [16], in the assay with Staphylococcus aureus [18], with Staphylococcus aureus [19], with Staphylococcus aureus [20], in the assay on Staphylococcus aureus [21] and with Staphylococcus aureus [22] was 1 µg/mL (≈ 2.27 µM) in each case.
